The record followed here is US8563779B2, “(4-trifluoromethyl-3-thiobenzoyl)cyclohexanediones and use thereof as herbicides” (Bayer CropScience AG, priority 2010, dated 2013).

Test [1] concerns PHBPU. Nature of the test: Post-emergence herbicidal action against weed plants. It is filed as in vivo, Pharbitis purpureum. The conditions noted are these: scored after 3 to 4 weeks under glass. The procedure: (§1) [table] 2. Post-emergence Herbicidal Action Against Weed Plants Seeds of monocotyledonous and dicotyledonous weed plants are set out in cardboard pots in sandy loam soil, covered with soil, and cultivated under glass under good growth conditions. Two to three weeks after sowing, the trial plants are treated at the three-leaf stage. The compounds according to the invention, formulated as wettable powders or as emulsifiable concentrates, are sprayed onto the surface of the green parts of the plants, at a water application rate of 600 to 800 l/ha (converted). After the trial plants have stood for 3 to 4 weeks under optimum growth conditions under glass, the action of the compounds according to the invention is scored in comparison to compounds disclosed in the prior art.

The subject of the next test is EPHHL. The test is described as above. It is filed as in vivo, Euphorbia heterophylla. The note with it: dose 12.5 g a.c./ha, scored after 3 to 4 weeks under glass. The protocol: as §1
In the next test the test system is PAPRH. The description is as above. It is filed as in vivo, Papaver rhoeas. The conditions noted are these: dose 50 g a.c./ha, scored after 3 to 4 weeks under glass. The protocol: as §1
For the next test, the system named is MATIN. Described as above. The conditions noted are these: dose 50 g a.c./ha, scored after 3 to 4 weeks under glass. Format: in vivo, Matricaria inodora. The procedure: as §1
For test [2], the system named is PHBPU. As to the kind of experiment: Pre-emergence herbicidal action against weed plants. Format: in vivo, Pharbitis purpureum. The conditions noted are these: dose 320 g a.c./ha, scored after 3 to 4 weeks under glass. An excerpt:
(§2) Water-dispersible granules are also obtained by homogenizing and precomminuting, in a colloid mill, • 25 parts by weight of a compound of the formula (I), • 5 parts by weight of sodium 2,2′-dinaphthylmethane-6,6′-disulfonate, • 2 parts by weight of sodium oleoylmethyltaurinate, • 1 part by weight of polyvinyl alcohol, • 17 parts by weight of calcium carbonate and • 50 parts by weight of water, subsequently grinding the mixture in a bead mill and atomizing and drying the resulting suspension in a spray tower by means of a single-fluid nozzle. C. BIOLOGICAL EXAMPLES 1. Pre-emergence Herbicidal Action Against Weed Plants
(§3) Seeds or rhizome sections of mono- and dicotyledonous weed plants are set out in pots of 9 to 13 cm in diameter, in sandy loam soil, and are covered with soil. The herbicides, formulated as emulsifiable concentrates or dusts, are applied to the surface of the covering earth in the form of aqueous dispersions or suspensions or emulsions, at a water application rate of 300 to 800 l/ha (converted). The pots are then maintained under glass under optimum conditions for the further cultivation of the plants. After 3 to 4 weeks under optimum growth conditions under glass, the trial plants are scored for the effect of the compounds according to the invention in comparison to compounds disclosed in the prior art.

Test [3] has as its system ALOMY. The description is as above. Format: in vivo, Alopecurus myosuroides. The conditions noted are these: dose 320 g a.c./ha, scored after 3 to 4 weeks under glass.
Description: as §2, §3

Another test concerns VIOTR. Described as above. Format: in vivo, Viola tricolor. The conditions noted are these: dose 320 g a.c./ha, scored after 3 to 4 weeks under glass.
Description: as §2, §3

The subject of another test is CYPES. The description is as above. The note with it: dose 320 g a.c./ha, scored after 3 to 4 weeks under glass. It is filed as in vivo, Cyperus serotinus.
Description: as §2, §3

A further test relates to POLCO. The test is described as above. It is filed as in vivo, Polygonum convolvulus. The note with it: dose 320 g a.c./ha, scored after 3 to 4 weeks under glass.
Description: as §2, §3

Test [4] concerns ALOMY. As to the kind of experiment: Post-emergence herbicidal action against weed plants. It is filed as in vivo, Alopecurus myosuroides. The conditions noted are these: dose 80 g a.c./ha, scored after 3 to 4 weeks under glass. The procedure: as §1
For test [5], the system named is AMARE. As to the kind of experiment: Pre-emergence herbicidal action against weed plants. It is filed as in vivo. The note with it: dose 320 g a.c./ha, scored after 3 to 4 weeks under glass.
Description: as §2, §3

The test system of test [6] is LOLMU. The test is described as above. Format: in vivo, Lolium multiflorum. The conditions noted are these: dose 320 g a.c./ha, scored after 3 to 4 weeks under glass.
Description: as §2, §3

Test [7] relates to LOLMU. As to the kind of experiment: Post-emergence herbicidal action against weed plants. Format: in vivo, Lolium multiflorum. The conditions noted are these: dose 80 g a.c./ha, scored after 3 to 4 weeks under glass. The protocol: as §1
The test system of another test is ABUTH. The description is as above. The note with it: dose 80 g a.c./ha, scored after 3 to 4 weeks under glass. It is filed as in vivo, Abutilon theophrasti. The protocol: as §1
Test [8] has as its system AMARE. Described as above. It is filed as in vivo. The conditions noted are these: dose 80 g a.c./ha, scored after 3 to 4 weeks under glass. The procedure: as §1, with “2.” for “[table] 2.”

The structures appear in SMILES notation.

Turning to `Cc1c(C(=O)c2cnn(C)c2O)ccc(C(F)(F)F)c1S(C)(=O)=O`, the “Herbicidal action against PHBPU” value in the test on PHBPU [1] (dose 12.5 g a.c./ha) is 50%. Besides, in the test on EPHHL, the “Herbicidal action against EPHHL” value worked out at 45%.

`Cc1c(C(=O)c2cnn(C)c2O)ccc(C(F)(F)F)c1[S+](C)[O-]` (stereo not shown): in the test with PAPRH, the “Herbicidal action against PAPRH” value came to 55%. Moreover, in the test on MATIN, the “Herbicidal action against MATIN” value is given as 74%. Further, the “Herbicidal action against PHBPU” value in the test with PHBPU [2] is 50%. The “Herbicidal action against ALOMY” value in the test on ALOMY [3] is on record as 70%. For the same molecule, the “Herbicidal action against VIOTR” value in the test on VIOTR worked out at 90%.

With `CCn1ncc(C(=O)c2ccc(C(F)(F)F)c(S(C)(=O)=O)c2C)c1O`, in the test on CYPES, the “Herbicidal action against CYPES” value came to 60%. Moreover, the “Herbicidal action against POLCO” value with POLCO is given as 60%. Further, the “Herbicidal action against ALOMY” value with ALOMY [3] was 50%.

With `CCn1ncc(C(=O)c2ccc(C(F)(F)F)c([S+](C)[O-])c2C)c1O` (stereo not shown), the entries for the “Herbicidal action against PHBPU” value with PHBPU [1] (dose 80 g a.c./ha) and in the test on PHBPU [2] were 80% and 0%, respectively. Also, the “Herbicidal action against ALOMY” value in the test with ALOMY [4] stood at 60%; in the test with ALOMY [3] it was 70%.

On to `Cc1nn(C)c(O)c1C(=O)c1ccc(C(F)(F)F)c(S(C)(=O)=O)c1C`, for which the “Herbicidal action against AMARE” value with AMARE [5] came out at 90%. Moreover, in the test on CYPES, the “Herbicidal action against CYPES” value is 50%. Besides, in the test with ALOMY [3], the “Herbicidal action against ALOMY” value came to 50%.

As to `Cc1nn(C)c(O)c1C(=O)c1ccc(C(F)(F)F)c([S+](C)[O-])c1C` (stereo not shown), the entries for the “Herbicidal action against LOLMU” value in the test on LOLMU [6] and in the test on LOLMU [7] were 60% and 30%, respectively. Besides, the “Herbicidal action against ALOMY” value with ALOMY [3] amounted to 60%. The “Herbicidal action against VIOTR” value in the test on VIOTR is reported as 40%. In addition, in the test on ABUTH, the “Herbicidal action against ABUTH” value is listed as 80%. The “Herbicidal action against AMARE” value with AMARE [8] is listed as 50%.

Regarding `Cc1c(C(=O)C2C(=O)C3CCC(C3)C2=O)ccc(C(F)(F)F)c1[S+](C)[O-]` (stereo not shown) [inventive compound No. 1-9], the “Herbicidal action against PAPRH” value with PAPRH was 95%. Moreover, the “Herbicidal action against LOLMU” value in the test with LOLMU [6] was 90%; in the test with LOLMU [7], 80%. Further, the “Herbicidal action against MATIN” value in the test with MATIN was 95%. Besides, the “Herbicidal action against PHBPU” value in the test on PHBPU [1] (dose 80 g a.c./ha) amounted to 90%; with PHBPU [2], 80%. Besides, the “Herbicidal action against ALOMY” value in the test with ALOMY [4] stood at 80%; in the test with ALOMY [3] it was 100%. Further, the “Herbicidal action against VIOTR” value in the test with VIOTR turned out to be 100%. Moreover, the “Herbicidal action against ABUTH” value in the test on ABUTH was determined as 100%. Further, the “Herbicidal action against AMARE” value in the test with AMARE [8] was 90%.

Turning to `Cc1c(C(=O)C2C(=O)C3CCC(C3)C2=O)ccc(C(F)(F)F)c1S(C)(=O)=O` (stereo not shown) [inventive compound No. 1-17], the “Herbicidal action against AMARE” value with AMARE [5] worked out at 100%. Also, the “Herbicidal action against CYPES” value in the test on CYPES is reported as 90%. Also, in the test on POLCO, the “Herbicidal action against POLCO” value is listed as 100%. The “Herbicidal action against PHBPU” value in the test on PHBPU [1] (dose 12.5 g a.c./ha) was 85%. For the same molecule, in the test with ALOMY [3], the “Herbicidal action against ALOMY” value stood at 90%. Moreover, the “Herbicidal action against EPHHL” value in the test with EPHHL is 85%.
